Assay: gradient 5% acetonitrile 3 min, to 50% in 2 min, to 85% in 15 min, held 3 min, 100 µL/min
Details: column: Zorbax Extend-C18 2.1 x 50 mm; eluents: water / acetonitrile, 0.1% formic acid
How it was run: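 In both positive and negative ionization mode, a quadrupole time-of-flight mass spectrometer coupled to HPLC analyzed pure standards run in mixtures of ~100 molecules. The Zorbax Extend-C18 column (2.1 × 50 mm, 1.8 μm) was operated at 100 μL/min with water and acetonitrile, each containing 0.1% formic acid. The dead volume was 40 μL and the dwell volume 900 μL. Retention time came from adduct peaks that were computationally picked and individually inspected by hand.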

Row | Compound | RP-LC retention time [s]
1 | CCn1cnc(S(=O)(=O)N2CCCC(C(=O)NCc3cccc(C)c3)C2)c1 (stereo unspecified) | 747
2 | COc1ccc(OC)c2sc(NC(=O)c3cc(Cl)sc3Cl)nc12 | 1010
3 | CC1CCCN(C(=O)c2cc3c(s2)CCN(C(=O)c2ccccc2)C3)C1 (stereo unspecified) | 589
4 | Cc1ccc(S(=O)(=O)N2CCN(c3cnn4c(C)nnc4c3)CC2)cc1 | 679
5 | O=C(Nc1ccc(Cl)cc1)c1cn(CC(O)c2ccc3c(c2)OCO3)nn1 (stereo unspecified) | 841
6 | Cc1nc(C)c(C(=O)Nc2nc(-c3ccc(F)cc3)c(C)s2)s1 | 956
7 | NS(=O)(=O)OC[C@@H]1C[C@@H](n2ccc3c(N[C@H]4CCc5ccccc54)ncnc32)C[C@H]1O | 724
8 | C=C1C(=O)[C@]23[C@H](O)[C@H]1CC[C@H]2[C@@]12CO[C@]3(O)[C@@H](O)[C@@H]1C(C)(C)CC[C@@H]2O | 794
9 | CC(C)NCc1ccc(-c2cccc(Cl)c2)o1 | 691
10 | Cc1cccc(C(=O)NCc2ccc3c(c2)nnn3C)c1 | 700
11 | O=S(=O)(c1ccc2c(c1)CCCC2)N1CCCC1c1nc(-c2ccc(F)cc2)no1 (stereo unspecified) | 1290
12 | Cc1cc(C)c(NC(=O)Cn2c(=O)cc(-c3nc(C4CC4)no3)c3ccccc32)c(C)c1 | 999
13 | CC(C)c1nnc(NC(=O)C2CCN(C(=O)c3ccc(F)cc3)CC2)s1 | 727
14 | Cc1cc(C(=O)Nc2ccc(CC(=O)NCc3cccs3)cc2)c(C)o1 | 762
15 | O=C(Nc1nc(-c2ccncc2)cs1)c1ccc(NS(=O)(=O)c2ccccc2)cc1 | 589
16 | Cc1nc(-c2noc(-c3cccc(F)c3)n2)cn1CC(=O)Nc1cccc(F)c1 | 889
17 | CN(C)S(=O)(=O)c1ccc(-c2nnc(C(=O)NCCN3CCOCC3)o2)cc1 | 1270
18 | CCc1cc(=O)oc2cc(C)cc(OC(C)C(=O)N3CCC4(O)CCCCC4C3)c12 (stereo unspecified) | 817
19 | CCCOc1nc2ccccc2nc1N1CCCC(C(=O)Nc2cc(C)ccc2C)C1 (stereo unspecified) | 1340
20 | CCc1nn2c(CNC(=O)c3cccc(OC)c3)c(-c3ccccc3)nc2s1 | 885
21 | CC(C)n1nnc2cc(S(=O)(=O)N(C)CC(=O)N3CCN(c4ccccn4)CC3)ccc21 | 607
22 | O=C(Cn1nc2c3cc(-c4ccccc4)nn3ccn2c1=O)NC1CCCC1 | 796

Row | Compound | RP-LC retention time [s]
23 | CCCn1nc(CNC(=O)c2ccsc2)c2ccccc21 | 825
24 | CCn1cnc(S(=O)(=O)N2CCC(C(=O)N3CCN(c4cc(C)ccc4C)CC3)CC2)c1 | 878
25 | Cc1ccn2c(NC(=O)C(C)(C)C)c(-c3ccc(F)cc3)nc2c1 | 648
26 | CCn1cc(-c2nc(CC(=O)NCc3ccc(C)o3)cs2)c2cccnc21 | 912
27 | COc1ccccc1C(=O)Nc1nc(-c2ccc3c(c2)NC(=O)CO3)c(C)s1 | 889
28 | CCc1ccccc1S(=O)(=O)NCc1c(-c2ccccc2)nc2sc(C)nn12 | 940
29 | Cc1ccccc1NC(=O)N(C)CCc1noc(COc2ccccc2F)n1 | 926
30 | Cn1nccc1-c1cccc(-c2noc(-c3ccc(F)c(Cl)c3)n2)c1 | 1280
31 | CC(C)c1nnc(C2CN(Cc3cccc(C(F)(F)F)c3)CC23CCN(C)CC3)o1 (stereo unspecified) | 593
32 | Cc1ccc2nc(-c3cccc(S(=O)(=O)N4CCOCC4)c3)cn2c1 | 605
33 | CCc1nc2cc(N3CCC(C(=O)NCCN4CCCCC4)CC3)cnc2nc1CC | 580
34 | CCSc1ccc(Cc2nnc(NC(=O)c3ccc(S(=O)(=O)N(C)C)cc3)o2)cc1 | 819
35 | CCc1ccc(NC(=O)Cn2c(C)nc3c(sc4nc(-c5ccccc5)ccc43)c2=O)cc1 | 1120
36 | CCOC(=O)c1noc2nc(C)nc(N3CCN(c4ccc(Cl)cc4)CC3)c12 | 1190
37 | O=C(c1ccc2ncnc(N3CCCC3)c2c1)N1CCCCC1 | 577
38 | CCCc1ccc(S(=O)(=O)N2CCC3(CC2)NCCN=C3NCc2ccc(OC)cc2)cc1 | 826
39 | Fc1ccc(-c2noc3ncnc(N4CCN(c5ccccn5)CC4)c23)cc1 | 660
40 | CCN(CC)C(=O)c1ccc2c(c1)N(CC(=O)NCCOC)C(=O)C1CCCCN21 (stereo unspecified) | 688
41 | Cc1cc(C(N)=O)c2cc(F)ccc2n1 | 544
42 | c1coc(-c2nnc(-c3cc4ccccc4o3)o2)c1 | 925
43 | CCn1nccc1C(=O)N1CCC2(CC1)N=C(c1ccc(C)cc1)NO2 | 734
44 | COC(=O)c1ccc2c(=O)n(-c3cc(C)cc(C)c3)c(N3CCSC3)nc2c1 | 1180

Row | Compound | RP-LC retention time [s]
45 | Cc1cccc(N2CCN(c3ccc4cc(S(=O)(=O)N5CCCCC5)ccc4n3)CC2C)c1 (stereo unspecified) | 1110
46 | NCc1nnnn1-c1ccc(Cl)cc1 | 522
47 | COc1ccc(S(=O)(=O)Nc2ccc(-c3cn4ccc(C)nc4n3)cc2)cc1 | 656
48 | Cc1ccc(-n2cc(C(=O)Oc3cccnc3)c3ccccc3c2=O)cc1 | 978
49 | COc1cccc(OC)c1CN1CC[C@@H]2CN(S(C)(=O)=O)[C@@H]2C1 | 594
50 | Cc1cc(NC(=O)CSc2nnnn2C)sn1 | 596
51 | CCOC(=O)c1c(N2C(=O)CC(Sc3ccccc3C(=O)O)C2=O)sc(C)c1C (stereo unspecified) | 821
52 | COc1ccc(-c2csc(NC(=O)Cc3csc(C)n3)n2)cc1 | 828
53 | COCCc1noc(C2Cc3ccccc3N2C(=O)Nc2ccc3c(c2)OCCO3)n1 (stereo unspecified) | 860
54 | COc1ccc(-n2c(=O)n(C)c(=O)c3cc(C(=O)NC4CCCCCC4)cnc32)cc1 | 924
55 | CCc1noc(-c2nc(-c3ccc(OC)c(F)c3)no2)n1 | 926
56 | Cc1ccccc1S(=O)(=O)N1CCn2c(nn(CC3CC3)c2=O)C1 | 766
57 | Cc1ccc(CNC(=O)Cn2c(=O)c(=O)n(C)c3ncccc32)o1 | 656
58 | Cc1oc(-c2ccccc2)nc1Cn1cnc2nc3c(cc2c1=O)CC(C)CC3 (stereo unspecified) | 1010
59 | CCOc1ccccc1NC(=O)C(=O)NCCc1ccsc1 | 1020
60 | CSc1cccc(NC(=O)C2CCC(=O)N2S(=O)(=O)c2ccc(C)cc2)c1 (stereo unspecified) | 954
61 | Cc1cccc(-c2nnc(-c3nc(NCCCN4CCCC4=O)c4ccccc4n3)o2)c1 | 814
62 | O=C(c1ccco1)N1CCCC(Nc2ncnc3c2CCC3)C1 (stereo unspecified) | 570
63 | CN(C)C/C=C/C(=O)Nc1cc2c(Nc3ccc(F)c(Cl)c3)ncnc2cc1O[C@H]1CCOC1 | 632
64 | O=c1n(Cc2ccc(Cl)cc2)nc2ccc(S(=O)(=O)N3CCCCCC3)cn12 | 1020
65 | COc1ccc(NC(=O)Nc2ccc3c(c2)CCN3S(=O)(=O)c2ccc(C)cc2)cc1 | 953
66 | O=S(=O)(c1ccc(-c2noc(-c3cccc(Br)c3)n2)cc1)N1CCOCC1 | 1190
